Consider 25 molecules from patent US10183928B2, “Inhibitors of RET” (BLUEPRINT MEDICINES CORPORATION, priority 2016, dated 2019).

wild type RET, sequence (P07949 29-1114): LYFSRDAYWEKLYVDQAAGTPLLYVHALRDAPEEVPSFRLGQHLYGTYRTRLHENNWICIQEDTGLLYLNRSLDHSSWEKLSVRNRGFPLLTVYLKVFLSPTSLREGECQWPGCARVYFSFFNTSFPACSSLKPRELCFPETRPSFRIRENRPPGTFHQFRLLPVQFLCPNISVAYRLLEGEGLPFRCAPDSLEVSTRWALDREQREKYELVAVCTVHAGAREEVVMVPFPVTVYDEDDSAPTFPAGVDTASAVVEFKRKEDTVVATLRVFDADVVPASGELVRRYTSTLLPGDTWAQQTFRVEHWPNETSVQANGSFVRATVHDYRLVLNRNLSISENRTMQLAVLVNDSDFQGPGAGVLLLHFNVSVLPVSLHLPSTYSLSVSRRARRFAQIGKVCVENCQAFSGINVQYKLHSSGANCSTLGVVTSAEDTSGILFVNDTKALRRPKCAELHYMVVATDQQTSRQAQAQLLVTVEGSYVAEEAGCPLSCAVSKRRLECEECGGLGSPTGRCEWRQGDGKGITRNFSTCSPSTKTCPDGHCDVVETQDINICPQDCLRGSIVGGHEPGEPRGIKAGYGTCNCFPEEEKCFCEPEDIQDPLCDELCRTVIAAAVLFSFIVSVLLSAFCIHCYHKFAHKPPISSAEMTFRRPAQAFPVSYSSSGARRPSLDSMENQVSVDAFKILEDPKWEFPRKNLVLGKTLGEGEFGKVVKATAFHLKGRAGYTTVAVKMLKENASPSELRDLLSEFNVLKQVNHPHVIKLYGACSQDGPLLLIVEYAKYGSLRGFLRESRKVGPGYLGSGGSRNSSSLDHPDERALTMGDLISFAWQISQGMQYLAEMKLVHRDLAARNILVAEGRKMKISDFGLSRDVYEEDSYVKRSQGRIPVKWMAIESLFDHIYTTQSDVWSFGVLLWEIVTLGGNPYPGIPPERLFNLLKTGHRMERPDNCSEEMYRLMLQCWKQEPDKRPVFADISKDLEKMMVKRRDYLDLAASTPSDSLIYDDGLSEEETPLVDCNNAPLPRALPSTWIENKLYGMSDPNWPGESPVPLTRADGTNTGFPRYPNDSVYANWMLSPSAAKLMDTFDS

This experiment addresses wild type RET (Homo sapiens (Human), UniProt P07949). In words: RET Wild Type Assay at KM (Caliper electrophoretic mobility shift). In kind it is biochemical. The conditions noted are these: 25 μM ATP, 25° C., 120 minutes; read-out: Wild-type RET (RET Inhibitory Activity).
For the molecule `CO[C@]1(C(=O)NCc2cnc(-n3cc(F)cn3)cn2)C[C@H](c2cc(C)nc(Nc3cc(C)[nH]n3)n2)C1` [Compound 131], the IC50 was in the range of 1.01 to 10 nM. Take `CO[C@]1(C(=O)N[C@@H](C)c2cnc(-n3cc(F)cn3)cn2)C[C@H](c2nc(C)cc(Nc3cc(C)[nH]n3)n2)C1` [Compound 123]: the IC50 was below 1 nM. Under `Cc1cc(Nc2cc(C)[nH]n2)nc([C@H]2C[C@@](C)(C(=O)N[C@@H](C)c3ccc(-n4cc(F)cn4)nc3)C2)n1` [Compound 107, (1S,3R)—N—((S)-1-(6-(4-fluoro-1H-pyrazol-1-yl)pyridin-3-yl)ethyl)-1-methyl-3-(4-methyl-6-((5-methyl-1H-pyrazol-3-yl)amino)pyrimidin-2-yl)cyclobutane-1-carboxamide] stands 1.01 to 10 nM; under `CO[C@]1(C(=O)N[C@@H](C)c2ccc(-n3cc(F)cn3)nc2)C[C@H](c2cc(C)nc(Nc3cc(C)[nH]n3)n2)C1` [Compound 122], below 1 nM. In the case of `Cc1cc(Nc2cc(C)[nH]n2)nc([C@H]2C[C@@H](C(=O)N[C@@H](C)c3ccc(-n4cc(F)cn4)nc3)C2)c1` [Compound 103], the IC50 is 10 to 100 nM. With `Cc1cc(Nc2cc(C)[nH]n2)nc([C@]2(F)C[C@@H](C(=O)N[C@@H](C)c3ccc(-n4cc(F)cn4)nc3)C2)c1` [Compound 114] the figure was 1.01 to 10 nM; with `CO[C@]1(C(=O)N[C@@H](C)c2ccc(-n3cc(F)cn3)nc2)C[C@H](c2cc(C)cc(Nc3cc(C)[nH]n3)n2)C1` [Compound 120], below 1 nM.

`Cc1cc(Nc2cc(C)[nH]n2)nc([C@]2(O)C[C@@H](C(=O)N[C@@H](C)c3ccc(-n4cc(F)cn4)nc3)C2)c1` [Compound 109]: the IC50 was below 1 nM. Regarding `Cc1cc(Nc2cc(C)[nH]n2)nc([C@H]2C[C@H](C(=O)NCc3ccc(-n4cccn4)nc3)C2)c1` [Compound 100], the IC50 is below 1 nM.

Regarding `CO[C@]1(C(=O)N[C@@H](C)c2cnc(-n3cc(F)cn3)cn2)C[C@H](c2cc(C)nc(Nc3cc(C)[nH]n3)n2)C1` [Compound 124], the IC50 was below 1 nM.

Turning to `Cc1cc(Nc2cc(C)[nH]n2)nc([C@]2(O)C[C@@](C)(C(=O)N[C@@H](C)c3ccc(-n4cc(F)cn4)nc3)C2)c1` [Compound 119], the IC50 is below 1 nM. Under `CO[C@]1(c2cc(C)cc(Nc3cc(C)[nH]n3)n2)C[C@H](C(=O)N[C@@H](C)c2ccc(-n3cc(F)cn3)nc2)C1` [Compound 117, (1S,3R)—N—((S)-1-(6-(4-fluoro-1H-pyrazol-1-yl)pyridin-3-yl)ethyl)-3-methoxy-3-(4-methyl-6-((5-methyl-1H-pyrazol-3-yl)amino)pyridin-2-yl)cyclobutane-1-carboxamide] stands below 100 nM. Under `Cc1cc(Nc2cc(C)[nH]n2)nc([C@H]2C[C@](C)(C(=O)N[C@@H](C)c3ccc(-n4cc(F)cn4)nc3)C2)n1` [Compound 108, (1R,3S)—N—((S)-1-(6-(4-fluoro-1H-pyrazol-1-yl)pyridin-3-yl)ethyl)-1-methyl-3-(4-methyl-6-((5-methyl-1H-pyrazol-3-yl)amino)pyrimidin-2-yl)cyclobutane-1-carboxamide] stands below 1 nM; under `Cc1cc(Nc2cc(C)[nH]n2)nc([C@H]2C[C@](C)(C(=O)N[C@@H](C)c3cnc(-n4cc(F)cn4)cn3)C2)n1` [Compound 110], below 1 nM; under `CO[C@]1(C(=O)N[C@@H](C)c2ccc(-n3cc(F)cn3)nc2)C[C@@](O)(c2cc(C)cc(Nc3cc(C)[nH]n3)n2)C1` [Compound 128], below 100 nM. Under `Cc1cc(Nc2cc(C)[nH]n2)nc([C@H]2C[C@H](C(=O)N[C@@H](C)c3ccc(-n4cc(F)cn4)nc3)C2)c1` [Compound 102] stands below 1 nM; under `Cc1cc(Nc2cc(C)[nH]n2)nc([C@H]2C[C@H](C(=O)N[C@H](C)c3cnc(-n4cc(F)cn4)cn3)C2)c1` [Compound 104], below 1 nM. Turning to `Cc1cc(Nc2cc(C)[nH]n2)nc([C@]2(O)C[C@](C)(C(=O)N[C@@H](C)c3ccc(-n4cc(F)cn4)nc3)C2)c1` [Compound 118], the IC50 was below 100 nM. On to `Cc1cc(Nc2cc(C)[nH]n2)nc([C@]2(F)C[C@H](C(=O)N[C@@H](C)c3ccc(-n4cc(F)cn4)nc3)C2)c1` [Compound 113, (1S,3R)-3-fluoro-N—((S)-1-(6-(4-fluoro-1H-pyrazol-1-yl)pyridin-3-yl)ethyl)-3-(4-methyl-6-(5-methyl-1H-pyrazol-3-ylamino)pyridin-2-yl)cyclobutanecarboxamide], for which the IC50 lay in the range of 10 to 100 nM. With `Cc1cc(Nc2cc(C)[nH]n2)nc([C@H]2C[C@H](C(=O)N[C@H](C)c3ccc(-n4cccn4)nc3)C2)c1` [Compound 101] the figure was below 1 nM. For `Cc1cc(Nc2cc(C)[nH]n2)nc([C@H]2C[C@H](C(=O)N[C@@H](C)c3ccc(-n4cc(F)cn4)nc3)C2)n1` [Compound 105], the IC50 was below 1 nM.

Consider `CO[C@]1(C(=O)N[C@@H](C)c2ccc(-n3cc(F)cn3)nc2)C[C@](O)(c2cc(C)cc(Nc3cc(C)[nH]n3)n2)C1` [Compound 127], for which the IC50 was below 1 nM. Take `CO[C@]1(C(=O)N[C@@H](C)c2ccc(-n3cc(F)cn3)nc2)C[C@H](c2nc(C)cc(Nc3cc(C)[nH]n3)n2)C1` [Compound 121]: the IC50 was below 1 nM. For `Cc1cc(Nc2cc(C)[nH]n2)nc([C@]2(O)C[C@@H](C(=O)N(C)[C@@H](C)c3ccc(-n4cc(F)cn4)nc3)C2)c1` [Compound 116], the IC50 lay in the range of 1.01 to 10 nM. With `Cc1cc(Nc2cc(C)[nH]n2)nc([C@]2(F)C[C@](C)(C(=O)N[C@@H](C)c3ccc(-n4cc(F)cn4)nc3)C2)c1` [Compound 126], the IC50 is below 100 nM.
